Results: patent publication US6432953B1, “Polymorphic form of a tachykinin receptor antagonist” (Merck & Co., Inc., priority 1997, dated 2002)
Converted amounts (≈) assume the structure as drawn.

Key:
[1] = Solubility in methanol/water; format: physicochemical; conditions: for solubility: 2/1 (v/v) methanol/water, 0 °C, organic solvent or mixture, thermodynamic from solid
Experimental: The solubility of Form I in 2/1 (v/v) methanol/water at 0° C. was determined to be 0.9±0.1 mg/ml. The solubility of Form II in 2/1 (v/v) methanol/water at 0C was determined to be 1.3±0.2 mg/ml.

[2] = Hygroscopicity; format: physicochemical
[3] = Thermal stability; format: physicochemical
[4] = Vapor pressure by Knudsen effusion techniques; format: physicochemical; conditions: at elevated temperatures, Form I compared with Form II
Description: The vapor pressures of Form I and Form II at elevated temperatures were similar when examined with Knudsen effusion techniques.

[5] = tested on: cisplatin-induced emesis; assay: Ferret model of cisplatin-induced emesis; format: in vivo; conditions: model of Tattersall et al.

ratio of the solubilities [1] | solubility ([1]; 2/1 (v/v) methanol/water at 0° C.) [µg/mL] | more stable than Form II by ([1]; thermodynamic stability difference between polymorphs, from solubility ratio) [kcal/mol] | hygroscopicity [2] | thermal stability ([3]; as a neat solid) | thermal stability ([3]; in hydroalcoholic solution) | vapor pressures [4] | solubility ([1]; 2/1 (v/v) methanol/water at 0C) [µg/mL] | Compound | retching and vomiting induced by cisplatin [5]
1.4 | 900 ± 100 (≈ 1680 µM) | 0.2 | non-hygroscopic | high degree of thermal stability | high degree of thermal stability | similar |  | CC(OC1OCCN(Cc2n[nH]c(=O)[nH]2)[C@H]1c1ccc(F)cc1)c1cc(C(F)(F)F)cc(C(F)(F)F)c1 (stereo partly drawn) [Form I] | attenuate the retching and vomiting induced by cisplatin
 |  |  |  |  |  |  | 1300 ± 200 (≈ 2430 µM) | CC(OC1OCCN(Cc2n[nH]c(=O)[nH]2)[C@H]1c1ccc(F)cc1)c1cc(C(F)(F)F)cc(C(F)(F)F)c1 (stereo partly drawn) [Form II] | 
